# Data: patent EP1900728A1 (Genecare Research Institute Co., Ltd, priority 2005, dated 2006)
# Like-named read-outs stand apart in the source and are kept apart here.
# Assays:
# [1] = molecular target: T1, IκBα ubiquitinating enzyme (SCF complex: ROC1, Cullin1, Skp1, His-TrCP1; with E1, UbcH5b) (Homo sapiens, UniProt P62877+P63208+Q13616+Q9Y297); assay: Measurement of ubiquitinating enzyme activity (IκBα ubiquitination, time-resolved fluorescence with Eu(K)-labeled ubiquitin and XL665-labeled anti-GST antibody); type: biochemical
# T1 construct: His (polyhistidine); made in house; host or cells: insect cells (baculovirus) for the SCF complex and His-E1; E. coli for His-UBCH5b
# T1 sequence (Q9Y297 whole entry): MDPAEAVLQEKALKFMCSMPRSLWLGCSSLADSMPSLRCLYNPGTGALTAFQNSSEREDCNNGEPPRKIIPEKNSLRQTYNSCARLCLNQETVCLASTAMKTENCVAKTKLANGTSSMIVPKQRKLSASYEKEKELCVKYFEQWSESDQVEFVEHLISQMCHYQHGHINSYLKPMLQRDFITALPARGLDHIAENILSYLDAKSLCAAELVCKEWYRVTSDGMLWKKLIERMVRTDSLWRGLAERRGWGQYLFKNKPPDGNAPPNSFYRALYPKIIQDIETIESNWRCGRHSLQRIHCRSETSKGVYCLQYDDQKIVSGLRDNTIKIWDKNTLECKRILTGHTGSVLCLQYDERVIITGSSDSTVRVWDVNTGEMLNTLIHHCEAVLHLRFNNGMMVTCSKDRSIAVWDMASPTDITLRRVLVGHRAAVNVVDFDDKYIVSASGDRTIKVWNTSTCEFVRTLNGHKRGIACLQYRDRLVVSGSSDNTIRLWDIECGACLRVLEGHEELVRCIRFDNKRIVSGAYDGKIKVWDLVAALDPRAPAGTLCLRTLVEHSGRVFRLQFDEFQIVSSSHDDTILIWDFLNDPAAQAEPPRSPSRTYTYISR
# T1 sequence (Q13616 whole entry): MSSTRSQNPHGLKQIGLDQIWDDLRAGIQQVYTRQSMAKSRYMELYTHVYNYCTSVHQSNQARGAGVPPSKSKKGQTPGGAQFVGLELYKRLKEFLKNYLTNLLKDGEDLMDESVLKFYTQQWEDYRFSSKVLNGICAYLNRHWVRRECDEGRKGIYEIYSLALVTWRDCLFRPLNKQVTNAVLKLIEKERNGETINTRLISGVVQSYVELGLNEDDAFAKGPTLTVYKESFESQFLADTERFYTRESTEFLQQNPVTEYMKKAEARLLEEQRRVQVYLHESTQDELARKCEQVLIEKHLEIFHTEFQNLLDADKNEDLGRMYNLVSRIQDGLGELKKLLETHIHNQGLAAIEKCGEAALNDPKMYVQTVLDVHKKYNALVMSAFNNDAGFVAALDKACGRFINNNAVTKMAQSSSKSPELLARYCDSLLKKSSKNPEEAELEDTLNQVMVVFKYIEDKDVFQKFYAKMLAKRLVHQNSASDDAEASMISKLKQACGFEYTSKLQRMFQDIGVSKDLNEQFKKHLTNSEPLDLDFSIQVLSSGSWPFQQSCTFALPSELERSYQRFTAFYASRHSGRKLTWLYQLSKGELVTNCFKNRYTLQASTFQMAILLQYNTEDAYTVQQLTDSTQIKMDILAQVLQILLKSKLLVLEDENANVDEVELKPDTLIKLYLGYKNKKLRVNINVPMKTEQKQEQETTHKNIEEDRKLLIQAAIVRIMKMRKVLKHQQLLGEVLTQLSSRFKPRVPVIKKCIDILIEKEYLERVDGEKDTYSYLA
# T1 sequence (P63208 whole entry): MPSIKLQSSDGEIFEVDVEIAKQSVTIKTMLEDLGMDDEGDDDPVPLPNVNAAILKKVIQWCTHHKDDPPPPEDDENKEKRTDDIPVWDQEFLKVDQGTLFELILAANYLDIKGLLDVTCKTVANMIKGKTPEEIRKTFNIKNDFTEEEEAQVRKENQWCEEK
# T1 sequence (P62877 whole entry): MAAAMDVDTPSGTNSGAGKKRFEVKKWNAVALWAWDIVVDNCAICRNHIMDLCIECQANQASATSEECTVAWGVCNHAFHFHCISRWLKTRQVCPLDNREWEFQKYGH
# Procedure, shortened: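 Human SCF complex with E1 and UbcH5b ubiquitinated GST-IκBα pre-phosphorylated by IKKβ (2 mM ATP, pH 7.4, 1 h, RT), with Eu(K)-ubiquitin, 30 min RT. Stopped with EDTA, XL665 anti-GST added for 2 h; 665/620 nm TR-FRET ratio. % inhibition versus no-compound control and no-SCF blank gave IC50.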
# [2] = test system: ICAM-1 expression in HT-29 cells; assay: Measurement of ICAM-1 expressing activity (TNFα-induced ICAM-1 expression, cell ELISA); type: cell-based; conditions: Homo sapiens, Table 6, cell activity inhibition test by method (3), read-out: EVALUATION (IC50 class, inhibition of cell activity)
# Experimental: Method 2: Measurement of ICAM-1 expressing activity
# 2.0 x 10^4 HT-29 cells (ATCC) were plated onto a 96-well plate, and the cells were cultured for 48 hours using a McCoy' 5A medium (GIBCO) containing 10% inactivated fetal calf serum. The culture medium was removed, a culture medium containing a compound to be evaluated (final DMSO concentration of 0.5%) was added, and this was incubated at 37°C for 30 minutes. Thirty ng/mL of human TNFα (GIBCO) was added, and this was incubated at 37°C for 4 hours. After washing once with a washing solution (PBS containing 0.05% Tween 20), ice-cooled methanol was added, and this was left on ice for 10 minutes and then fixed. After removing methanol, PBS containing 1% BSA was added, and blocking was performed by letting this stand at room temperature for 30 minutes. Anti-ICAM-1 antibody (Santa Cruz Biotechnology) was added, and this was left to stand at room temperature for 1 hour. After washing with the washing solution, POD-labeled secondary antibody was added, and this was left to stand at room temperature for 30 minutes. This was washed, 100 µL of 100 mM citric acid buffer (pH4.2) containing 1 mM TMBZ and 0.03% H2O2 was added, and this was reacted at room temperature for 15 minutes. The reaction was terminated with 100 µL of 2 N H2SO4, and the absorbance at 450 nm was measured using ARVO-HTS (Perkin Elmer).
# When cells are stimulated with TNFα, IκBα is degraded after ubiquitination resulting in the activation of NFκB and the promotion of the expression of adhesion factor ICAM-1. Therefore, the suppression of ICAM-1 expression described above serves as an indicator to determine the effectiveness of the compound in the cells.
# [3] = enzyme activity inhibition test, method (1), Table 5, read-out: EVALUATION
"IC50 [1, 3]",IC50 [2],Structure (SMILES),IC50 [1]
< 10 µM,< 10 µM,COCC1=NN(c2ccc(C(=O)O)cc2)C(=O)/C1=C\c1ccc(N2CCN(C(=O)OC)CC2)cc1 [Compound 235],–
10 to 20 µM,< 40 µM,CC1=NN(c2cccc(C(=O)O)c2)C(=O)/C1=C\c1ccc(-c2ccccc2F)o1 [Compound 486],–
< 10 µM,10 to 20 µM,CC1=NN(c2ccc(C(=O)O)cc2)C(=O)/C1=C\c1ccc2c(ccn2Cc2c(C)noc2C)c1 [Compound 497],–
< 10 µM,< 10 µM,CC(=O)c1ccc(-c2ccc(/C=C3\C(=O)N(c4ccc(C(=O)O)cc4)N=C3C)o2)cc1 [Compound 502],–
< 10 µM,< 40 µM,CC1=NN(c2cccc(C(=O)O)c2)C(=O)/C1=C\c1ccc2c(ccn2C(=O)C2CC2)c1 [Compound 530],–
10 to 20 µM,10 to 20 µM,CC1=NN(c2cccc(C(=O)O)c2)C(=O)/C1=C\c1ccc(N2CCCC2)cc1 [Compound 472],–
10 to 20 µM,< 40 µM,CN1CCN(c2ccc(/C=C3\C(=O)N(c4ccc(C(=O)O)cc4)N=C3Cc3ccccc3)cc2)CC1 [Compound 274],–
10 to 20 µM,< 40 µM,CC1=NN(c2ccc(C(=O)N3CCC(CO)CC3)cc2)C(=O)/C1=C\c1ccc2c(c1)OCCO2 [Compound 387],–
10 to 20 µM,< 40 µM,CC1=NN(c2cccc(C(=O)O)c2)C(=O)/C1=C\c1ccc(N2CCN(C(=O)OC(C)(C)C)CC2)cc1 [Compound 437],–
< 10 µM,10 to 20 µM,CC1=NN(c2ccc(C(=O)O)cc2)C(=O)/C1=C\c1ccc2occc2c1 [Compound 370],–
< 10 µM,10 to 20 µM,CC1=NN(c2ccc(C(=O)O)cc2)C(=O)/C1=C\c1ccc2ccccc2c1 [Compound 253],–
< 10 µM,< 40 µM,CC1=NN(c2cccc(C(=O)O)c2)C(=O)/C1=C\c1ccc2c(ccn2C(=O)c2ccco2)c1 [Compound 531],–
10 to 20 µM,10 to 20 µM,O=C(O)c1ccc(N2N=C(C3CC3)/C(=C/c3ccc(N4CCCC4)cc3)C2=O)cc1 [Compound 317],–
< 10 µM,10 to 20 µM,CC1=NN(c2ccc(C(=O)O)cc2)C(=O)/C1=C\c1ccc(OCC(N)=O)cc1 [Compound 536],–
< 10 µM,< 40 µM,CC1=NN(c2cccc(C(=O)N3CCN(c4ccc(O)cc4)CC3)c2)C(=O)/C1=C\c1ccc2[nH]ccc2c1 [Compound 375],–
< 10 µM,10 to 20 µM,CCCCC1=NN(c2ccc(C(=O)O)cc2)C(=O)/C1=C\c1ccc(N2CCN(C(=O)OC)CC2)cc1 [Compound 298],–
< 10 µM,10 to 20 µM,O=C(O)c1ccc(N2N=C(c3ccncc3)/C(=C/c3ccc(N4CCCC4)cc3)C2=O)cc1 [Compound 287],–
< 10 µM,< 40 µM,CCOC(=O)COc1ccc(/C=C2\C(=O)N(c3ccc(C(=O)O)cc3)N=C2C)cc1 [Compound 540],–
< 10 µM,< 10 µM,COc1cccc(-c2ccc(/C=C3\C(=O)N(c4ccc(C(=O)O)cc4)N=C3C)o2)c1 [Compound 501],–

# Further lines, the compound ahead of its results:
Structure (SMILES),"IC50 [1, 3]",IC50 [2],IC50 [1]
O=C(O)c1ccc(N2N=C(c3ccncc3)/C(=C/c3ccc(CO)o3)C2=O)cc1 [Compound 334],< 10 µM,< 40 µM,–
"O=C(O)c1ccc(N2N=C(Cc3ccccc3)/C(=C/c3ccc(-c4ccccc4F)o3)C2=O)cc1 [Compound 267, 4-{3-Benzyl-4-[5-(2-fluorophenyl)-furan-2-ylmethylenc]-5-oxo-4.5-dihydropyrazol-1-yl} benzoic acid]",< 10 µM,< 10 µM,–
CC1=NN(c2ccc(C(=O)O)cc2)C(=O)/C1=C\c1ccc(-c2ccccc2Cl)o1 [Compound 456],< 10 µM,< 10 µM,–
CCCCC1=NN(c2ccccc2)C(=O)/C1=C\c1ccc(CO)o1 [Compound 56],10 to 20 µM,10 to 20 µM,–
CC1=NN(c2cccc(S(N)(=O)=O)c2)C(=O)/C1=C\c1cc2ccccc2o1 [Compound 164],< 10 µM,< 10 µM,–
CCCCC1=NN(c2ccc(C(=O)O)cc2)C(=O)/C1=C\c1ccc2[nH]ccc2c1 [Compound 474],< 10 µM,< 40 µM,–
CC1=NN(c2ccccc2)C(=O)C1=Cc1ccc(Oc2ccccc2)cc1 [Compound 212],–,10 to 20 µM,10 to 20 µM
COCC1=NN(c2ccccc2)C(=O)/C1=C\c1ccc(-c2ccccc2F)o1 [Compound 6],10 to 20 µM,< 40 µM,–
CC1=NN(c2ccc(S(N)(=O)=O)cc2)C(=O)C1=Cc1ccc(NC(=O)c2ccccc2F)cc1 [Compound 225],–,< 40 µM,< 10 µM
O=C(O)c1ccc(N2N=C(C3CC3)/C(=C/c3ccc4c(c3)OCCO4)C2=O)cc1 [Compound 319],< 10 µM,< 10 µM,–
O=C(O)c1ccc(N2N=C(c3cccnc3)/C(=C/c3ccc(CO)o3)C2=O)cc1 [Compound 308],< 10 µM,< 40 µM,–
COc1cc(/C=C2\C(=O)N(c3ccccc3)N=C2Cc2ccccc2)ccc1OCc1ccccc1 [Compound 24],10 to 20 µM,< 40 µM,–
COCCC1=NN(c2cccc(C(=O)O)c2)C(=O)/C1=C\c1ccc(-c2cnn(C)c2)o1 [Compound 505],10 to 20 µM,< 40 µM,–
COC(=O)N1CCN(c2ccc(C=C3C(=O)N(c4ccccc4)N=C3c3ccc(OC)c(OC)c3)cc2)CC1 [Compound 33],–,< 40 µM,10 to 20 µM
Cn1cc(-c2ccc(/C=C3\C(=O)N(c4ccc(C(=O)O)cc4)N=C3Cc3ccccc3)o2)cn1 [Compound 518],10 to 20 µM,10 to 20 µM,–
COC(=O)N1CCN(c2ccc(C=C3C(=O)N(c4ccc(C(=O)O)cc4)N=C3C)cc2)CC1 [Compound 254],–,< 40 µM,< 10 µM
CC1=NN(c2ccccc2)C(=O)/C1=C\c1ccc(-c2ccccc2F)o1 [Compound 19],< 10 µM,< 40 µM,–
COc1cc(C=C2C(=O)N(c3ccc(C(=O)O)cc3)N=C2c2ccc(F)cc2)ccc1OCc1ccccc1 [Compound 326],–,< 40 µM,< 10 µM
COc1ccc(C2=NN(c3ccc(C(=O)O)cc3)C(=O)/C2=C\c2ccc3ccccc3c2)cc1 [Compound 325],< 10 µM,< 10 µM,–
COC(=O)N1CCN(c2ccc(C=C3C(=O)N(c4ccccc4)N=C3C3CC3)cc2)CC1 [Compound 73],–,< 40 µM,10 to 20 µM
CC1=NN(c2ccc(C(=O)O)cc2)C(=O)C1=Cc1ccc2[nH]ccc2c1 [Compound 349],–,< 40 µM,< 10 µM
CC1=NN(c2ccc(S(N)(=O)=O)cc2)C(=O)C1=Cc1ccc(OCC(=O)Nc2ccccc2)cc1 [Compound 210],–,10 to 20 µM,< 10 µM
CCCCC1=NN(c2ccc(C(=O)O)cc2)C(=O)C1=Cc1ccc2c(c1)OCO2 [Compound 480],–,10 to 20 µM,< 10 µM
CCCCC1=NN(c2ccc(C(=O)O)cc2)C(=O)C1=Cc1ccc(O)c(OC)c1 [Compound 295],–,10 to 20 µM,10 to 20 µM
O=C1/C(=C\c2ccc3c(c2)OCCO3)C(Cc2ccccc2)=NN1c1ccccc1 [Compound 29],10 to 20 µM,10 to 20 µM,–
O=C(O)c1ccc(N2N=C(c3ccccn3)/C(=C/c3ccc(-c4ccccc4F)o3)C2=O)cc1 [Compound 290],< 10 µM,10 to 20 µM,–
O=C(O)c1cccc(N2N=C(Cc3ccccc3)/C(=C/c3ccc(-c4ccccc4F)o3)C2=O)c1 [Compound 519],10 to 20 µM,< 10 µM,–
